Source: patent US8431706B2, “1,2,3,4-tetrahydroqinoline derivative useful for the treatment of diabetes” (Eli Lilly and Company, priority 2011, dated 2013)

Tests used:
Gal4 PPARδ = target: T1, Gal4 PPARδ (Homo sapiens, UniProt Q03181); experiment: Gal4 PPARδ reporter functional assay in CV1 cells; type: cell-based; conditions: examined up to 10 μM; luciferase reporter; 24 hours
T1 construct: expressed in transfected cells; host or cells: CV1 (African green monkey kidney)
T1 sequence (Q03181 211-439 limits assumed): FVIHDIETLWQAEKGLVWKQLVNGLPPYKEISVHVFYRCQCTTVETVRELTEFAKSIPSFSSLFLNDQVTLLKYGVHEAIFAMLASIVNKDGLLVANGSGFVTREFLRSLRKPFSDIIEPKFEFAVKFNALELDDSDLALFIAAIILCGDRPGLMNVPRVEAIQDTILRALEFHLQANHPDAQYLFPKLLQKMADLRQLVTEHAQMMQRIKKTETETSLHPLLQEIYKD
Description: Gal4 PPARα, Gal4 PPARδ, and PPARγ reporter functional assays are also used to monitor the selectivity of the exemplified compound. CV1 cells, which are derived from the renal tissue of an African green monkey, are transfected with various receptor and reporter plasmids using Fugene. For the Gal4 PPARα and PPARδ assays, a reporter plasmid containing five tandem copies of the yeast transcription protein Gal4 response element, cloned upstream of a firefly luciferase gene driven by the major late promoter of adenovirus, is transfected together with a Simian Virus 40 (SV40) driven plasmid constitutively expressing a hybrid protein containing the Gal4 DNA binding domain (DBD), and either the PPARα or PPARδ ligand binding. For the PPARγ assay, plasmids encoding PPARγ and RXRα, both driven by a cytomegalovirus (CMV) promoter are transfected together with a plasmid containing luciferase reporter cDNA driven by the TK promoter and a receptor response element (2×PPRE). Cells are transfected in T225 cm^2 cell culture flasks in DMEM media with 5% charcoal-stripped FBS. […] After 24 hours incubation with the compound, cells are lysed and luciferase activity is determined as a measure of receptor activation by luminescence. […] The maximum percent stimulation is determined versus maximum stimulation obtained with 10 μM of an appropriate PPAR agonist reference compound. […]

[1] = tested on: mouse insulinoma cell line Min6; experiment: Glucose Dependent Insulin Secretion (GDIS) assay in Min6 cells; type: cell-based
Experimental: Because activation of GPR40 is known to result in insulin secretion, which is dependent on high glucose concentrations, two separate assay systems (an insulinoma cell line and primary rodent islets) are developed to further characterize compounds that are known to increase intracellular calcium in the GPR40 primary assay discussed above.
GDIS assays are performed using the mouse insulinoma cell line Min6. […] On the day of the experiment, the cells are washed twice with 200 μl of pre-warmed Krebs-ringer buffer without glucose. Addition of 200 μL of pre-warmed Krebs-ringer buffer containing 2.5 mM glucose is used to starve the cells followed by the addition of compounds in the presence of a high concentration of glucose (25 mM). The plate is incubated at 37° C. for 2 hours. At the end of the 2 h incubation, the supernatant is gently transferred into a Millipore filter plate and spun at 200 g (gravitational force) for 3 minutes. Insulin is assayed using a Mercodia Insulin estimation kit.

CC#C[C@@H](CC(=O)O)c1ccc(OCc2ccc(CN3CCCc4cccc(OC)c43)s2)cc1 [Example 1, (3S)-3-[4-[[5-[(8-Methoxy-3,4-dihydro-2H-quinolin-1-yl)methyl]-2-thienyl]methoxy]phenyl]hex-4-ynoic acid]
functional activation of PPARδ (Gal4 PPARδ): No functional activation
increase in insulin secretion ([1]; 1.0 μM plus 25 mM glucose, fold over 25 mM glucose, 2 h, P<0.01): 2.68 fold
insulin secretion, dose response ([1]; 0.01, 0.1, 1.0 and 10.0 μM plus 25 mM glucose): dose dependent increase in insulin secretion
